Results reported in ChEMBL document CHEMBL1139123, “Rational design and synthesis of novel nucleotide anti-Giardia agents” (Bioorg Med Chem Lett, 2007).
≈ marks a conversion by molar mass, not a printed value.

How the values were obtained:
Giardia intestinalis [1] = assay: Antiprotozoal activity against Giardia lamblia WB6 assessed as inhibition of cyst formation at 10 uM after 4 days relative to control; type: functional; details: Giardia duodenalis, WB6, 96 h
[2] = Toxicity in bovine MDBK cells; details: bovine (Bos taurus)
[3] = Therapeutic index, ratio of IC50 for bovine MDBK cells to MIC for Giardia lamblia WB6; type: cell-based; details: cattle
Giardia intestinalis [4] = assay: Antiprotozoal activity against Giardia lamblia WB6 trophozoites after 48 hrs; type: functional; details: Giardia duodenalis, WB6, 48 h

Structure (SMILES) | inhibition at 10 µM (Giardia intestinalis [1]) | IC50 [2] | selectivity ratio [3] | MIC (Giardia intestinalis [4])
C=CC[C@H]1O[C@H](CO)[C@@H](O)[C@H](O)[C@H]1NC(C)=O | 9.7% | 60 µM | 17 | 15.6 µM (≈ 3.83 µg/mL)
CC(=O)N[C@@H]1[C@@H](O)[C@H](O)[C@@H](CO)O[C@@H]1CCO | 56.2% | 125 µM | 32 | 3.9 µM (≈ 0.972 µg/mL)
CC(=O)N[C@@H]1[C@@H](O)[C@H](O)[C@@H](CO)O[C@@H]1CCOP(=O)(O)CC[C@H]1O[C@@H](n2ccc(=O)[nH]c2=O)[C@H](O)[C@@H]1O | 27.5% | 250 µM | 64 | 3.9 µM (≈ 2.16 µg/mL)
